Results from US12161753B2, “Sustained release biodegradable intracanalicular inserts comprising a hydrogel and an active agent” (OCULAR THERAPEUTIX, INC., priority 2020, dated 2024).
Where “and” joins values, the source holds several entries; their conditions need not be identical. Identical values can stand only once. Like-named read-outs stand apart in the source and are kept apart here.

Assays:
[1] = Particle size of cyclosporine by laser diffraction (effect of surfactants); format: physicochemical; settings: no surfactant
[2] = Example 3.2 proof-of-concept PK study: tear fluid concentration and drug released from inserts; format: in vivo, beagle dogs; settings: beagle; insert 0.44 mg cyclosporine, 4a20K SG/trilysine; over 32 days
Text: Inserts were removed at 32 days to determine the amount of remaining drug compared to the administered dose.

[3] = beagle, insert 0.7 mg cyclosporine, 4a20K SAZ/trilysine
[4] = for Cyclosporine per insert (left in removed insert), OD: beagles, initial dose 671±13 μg
immunomodulation = settings: Tang-Liu and Acheampong, Clin. Pharmacokinet. 44(3); cited from earlier work

Structure (SMILES): CC=CCC(C)C(O)C1C(=O)NC(CC)C(=O)N(C)CC(=O)N(C)C(CC(C)C)C(=O)NC(C(C)C)C(=O)N(C)C(CC(C)C)C(=O)NC(C)C(=O)NC(C)C(=O)N(C)C(CC(C)C)C(=O)N(C)C(CC(C)C)C(=O)N(C)C(C(C)C)C(=O)N1C (centres unmarked) [Cyclosporine, 30-ethyl-33-(1-hydroxy-2-methylhex-4-enyl)-1,4,7,10,12,15,19,25,28-nonamethyl-6,9,18,24-tetrakis(2-methylpropyl)-3,21-di(propan-2-yl)-1,4,7,10,13,16,19,22,25,28,31-undecazacyclotritriacontane-2,5,8,11,14,17,20,23,26,29,32-undecone]
- D10 [Average] ([1]; in DIW): 4 μm
- D10 [Average] ([1]; in PBS): 4.1 μm
- Estimated daily delivered dose [2]: 6.3 µg/day
- Average amount of cyclosporine released in 6 weeks ([3]; inserts removed at 6 weeks): 0.37 mg
- Estimated daily delivered dose ([3]; over 6 weeks): 8.8 µg/day
- Released amount ([4]; beagle, insert 0.67 mg cyclosporine, 4a20K SG/trilysine, 28 days): 3.4 µg
- Released amount ([4]; beagle, insert 0.67 mg cyclosporine, 4a20K SG/trilysine, 50 days): 3.5 µg
- Daily estimated delivered dose ([4]; beagle, insert 0.67 mg cyclosporine, 4a20K SG/trilysine, over 28 and 50 days): approximately 3.5 μg/day
- Cyclosporine per insert (left in removed insert), OD ([4]; insert removed at Day 28, single inserts): 596 µg
- Cyclosporine per insert (left in removed insert), OD ([4]; insert removed at Day 50, single inserts): 451 µg and 520 µg and 521 µg
- Cyclosporine concentration considered to be required for immunomodulation (immunomodulation): 0.236 µg/mL
